Test results from US9107889B2, “Compositions comprising an NO donor and a dithiolane and their use for improvement of sexual function” (Encrypta GmbH, priority 2005, dated 2015).

What was measured:
premature ejaculation = test: Clinical case reports: duration of intercourse / premature ejaculation; assay type: in vivo, human; settings: Case 5; Silfenadil and Verdenafil
Experimental: (§1) A patient complained about worsening of erection since 7 years. Sexual intercourse was only possible in selected position. In addition, they suffered from premature ejaculation. Their libido remained intact. The IEFF score at diagnosis was 11. The diagnosis was physical ED and premature ejaculation. 600 mg α-lipoic acid was given as single dose and arginine was given in 4 single doses over the day of 2 g. The erection improved and the intercourse was prolonged from 1-2 minutes to 7 minutes. The IEFF score changed from 11 to 15 points. The 4 single doses have been changed to a single dose of 10 g arginine, taken together with the α-lipoic acid.
(§2) A patient complained about worsening of erection and premature ejaculation. After administration of Silfenadil and Verdenafil, the erection improved; however, the premature ejaculations remained. The diagnosis was psychogenic ED and premature ejaculation. […] However, 200 mg thioctic acid together with 10 g arginine led to an improvement of the IIEF from 8 to 20 points. The duration of intercourse was extended from 1 to 4 minutes.
A person was able to perform intercourse only after nasal intake of isoamylnitrite since 5 years. However, intercourse was still unsatisfactory due to unpredictable erections and premature ejaculations. The diagnosis was physical erectile dysfunction and premature ejaculation. […]

[1] = test system: erectile dysfunction (ED); test: Challenge test with Silfenadil; assay type: in vivo, human; settings: Case 1; positive excludes organic pathology of ED
Experimental: (§3) A person suffered since 3 months from worsening of erection (reduction of penile tension) and of a slight reduction of libido. Their IIEF count at the examination was 9. All biochemical parameters and hormones were within the normal range. The Doppler sonography of the penile vessels was normal. A challenge test with Silfenadil was positive, thereby excluding an organic pathology of the erectile dysfunction (ED). […] Psychogenic ED was diagnosed after examination. […] Arginine (5 g) and 600 mg α-lipoic acid were taken orally 30 minutes prior intercourse. After therapy, erection normalized. The IIEF score improved from 9 to 21 points.

[2] = test system: erectile dysfunction (ED); test: Clinical case reports: erectile function, International Index of Erectile Function (IIEF) score; assay type: in vivo, human
From the text: ED is clinically assessed by the application of the International Index of Erectile Function (IIEF Scale). The scale consists of 5 items related to erectile function scored from never (1 points) to always (5 points). 21-25 points translate to the absence of ED, 16-20 points relate to a mild ED, 11-15 points relate to a moderate ED and 5-10 points translate to a severe ED.
as §3
A person complained since a week about insufficient erection. The person started sexual life with regularly intercourse twice a week. 3 months ago, they changed the sexual partner. At the 1st intercourse with the new partner, they experienced overexcitement. Since that time erection worsened, with an IIEF score of 8 points. The biochemical and hormonal values were within the normal range. The diagnosis was psychogenic ED and failure expectation syndrome. […] After change to 4 g arginine and 300 mg α-lipoic acid, the erection improved. The IIEF score improved from 8 to 12 points. In the meantime, the patient changed to chronic intake of 1 g arginine+100 mg α-lipoic acid daily. Occasionally, they take on demand prior intercourse additional 4 g arginine+300 mg α-lipoic acid.
as §1
A patient (company manager with associated psychological stress) complained about reduced erection and reduced libido since the last 13 years. The morning reactions retained. […] The diagnosis was psychogenic ED and manager syndrome. […] The IIEF score improved from 9 to 24 points. For chronic intake, the daily dose of arginine has been reduced to 2 g, with no change of the α-lipoic acid intake.
as §2

[3] = Adverse events in the clinical cases; assay type: in vivo, human; settings: Case 1
Experimental: as §3
None of the cases reported adverse events due to the intake of the combination partners. Attributes of cardiovascular dysfunction were not observed. Acutely, oral liquid presentations were applied, chronically both liquid and solid presentations.

loss of libido in women = test: Clinical case report: female sexual function (libido, orgasm, IFSF questionnaire); assay type: in vivo, human; settings: Case 6; arginine alone 3 g daily increased to 10 g
From the text: Female sexual function can be assessed by the Index of Female Sexual Function (IFSF), a 9-item self-assessment questionnaire. The IFSF is much more comprehensive in respect of sexual function assessment compared to the IIEF. Parameters to be assessed are discomfort during intercourse, degree of vaginal dryness, number of attempts to intercourse, rate and degree of sexual desire, level of satisfaction with sex life and relationship, degree of clitoral sensation and quality of orgasm.
A person experienced loss of libido after they have born their first child. Intercourse was often painful due to diminished […]. […] Since two years, they regularly attend with their spouse marriage counseling. […] The dose was increased weekly by 100 mg. […] The ISFS questionnaire improved (10 points). They reported that their partnership has improved. Marriage counseling has been aborted.

[4] = cited from earlier work

CCCc1nn(C)c2c(=O)[nH]c(-c3cc(S(=O)(=O)N4CCN(C)CC4)ccc3OCC)nc12 [Silfenadil]
premature ejaculations after administration (premature ejaculation): remained
challenge test result [1]: positive
erection after administration ([2]; Case 5, psychogenic ED and premature ejaculation, Silfenadil and Verdenafil): improved
side effect evoked by administration [3]: severe redness of face

N=C(N)NCCC[C@H](N)C(=O)O [arginine]
effect on loss of libido / absent orgasm (loss of libido in women): did not improve the situation
change of IIEF score ([2]; Case 2, psychogenic ED, baseline IIEF 8, oral intake of 4 g arginine alone): did not change
effect on ED / premature ejaculation ([2]; Case 5, 10 g arginine on top of basic treatment (Silfenadil, Verdenafil)): without any effect

O=C(O)CCCCC1CCSS1 (stereo not drawn) [α-lipoic acid]
change of IIEF score ([2]; Case 1, psychogenic ED, baseline IIEF 9, oral intake of 600 mg α-lipoic acid alone): did not change
effect on erection ([2]; Case 4, psychogenic ED, single dose 200 mg α-lipoic acid alone): without any effect
effect on erection ([2]; Case 4, α-lipoic acid alone increased to 600 mg): did improve the situation
pKa [4]: 5.3
